Common to all, as to type: cell-based
One experiment relates to Bacillus cereus. Put plainly: Agar plate disc-diffusion, antibacterial activity by inhibition zone. The conditions noted are these: nutrient agar, 37° C., 48 h. On the procedure:
(§1) The agar plate disc-diffusion method was applied. […] The discs were then placed onto the surface of agar plates (nutrient agar for bacteria and Sabouraud's dextrose agar for fungi) seeded with the test organism. Each plate contained 15 mL of the agar medium, previously seeded with 0.2 mL of the broth culture of each organism pregrown for 18 h. The plates were incubated at 37° C. for 48 h, and 72 h for fungi. The inhibition zones was measured in mm. Discs impregnated with DMSO were used as a control, and its inhibition zone was subtracted from the tested compound actual inhibition zone.
(§2) The results of the antimicrobial testing can be observed in Tables 1 and 2, below, using ciprofloxacin as a reference.

In a further experiment the test system is Escherichia coli. The description is as above. The conditions noted are these: nutrient agar, 37° C., 48 h. On the procedure:
as §1, §2

The next experiment concerns Pseudomonas aeruginosa. The experiment is described as above. The conditions noted are these: nutrient agar, 37° C., 48 h. On the procedure:
as §1, §2

Another experiment deals with Staphylococcus aureus. The description is as above. The conditions noted are these: nutrient agar, 37° C., 48 h. On the procedure:
as §1, §2

The test system of another experiment is Aspergillus flavus. Nature of the experiment: Agar plate disc-diffusion, antifungal activity by inhibition zone. The conditions noted are these: Sabouraud's dextrose agar, 72 h. On the procedure:
as §1, §2
A general note: Agar diffusion results depend on both activity and mobility in agar.

For experiment [1], the system named is Chrysosporium keratinophilum. The description is as above. The conditions noted are these: Sabouraud's dextrose agar, 72 h. The procedure:
The agar plate disc-diffusion method was applied. Sterilized filter papers (6 mm in diameter) were wetted with 10 μL of a solution N′-(2-(5-(4-chlorophenyl)-1,3,4-oxadiazol-2-ylthio)acetoxy)-4-methoxybenzimidamide (3) to be tested, containing 10 mg/mL in DMSO, and the discs were allowed to air dry. The discs were then placed onto the surface of agar plates (nutrient agar for bacteria and Sabouraud's dextrose agar for fungi) seeded with the test organism. Each plate contained 15 mL of the agar medium, previously seeded with 0.2 mL of the broth culture of each organism pregrown for 18 h. The plates were incubated at 37° C. for 48 h, and 72 h for fungi. The inhibition zones was measured in mm. Discs impregnated with DMSO were used as a control, and its inhibition zone was subtracted from the tested compound actual inhibition zone.
as §2

Setting [2] is: A = concentration of comp. = 10,000 μL.
[3] abbreviates: B = concentration of comp. = 30,000 μL.
Where [4] appears, read: C = concentration of comp. = 50,000 μL.

Inhibition zone data for two compounds are collected here from patent US11897850B1, “N′-(2-(5-(4-chlorophenyl)-1,3,4-oxadiazol-2-ylthio)acetoxy)-4-methoxybenzimidamide as an antimicrobial compound” (KING FAISAL UNIVERSITY, priority 2023, dated 2024).

SMILES strings stand for the structures.

For `O=C(O)c1cn(C2CC2)c2cc(N3CCNCC3)c(F)cc2c1=O` [Cip., ciprofloxacin], the inhibition zone was determined as 29 mm in the experiment with Bacillus cereus (setting [2]); 30 mm in the experiment on Bacillus cereus (setting [3]); 42 mm with Bacillus cereus (setting [4]); 30 mm in the experiment on Escherichia coli (setting [2]); 39 mm in the experiment on Escherichia coli (setting [3]); 60 mm in the experiment with Escherichia coli (setting [4]). Moreover, the inhibition zone is given as 29 mm in the experiment on Pseudomonas aeruginosa (setting [2]); 30 mm in the experiment with Pseudomonas aeruginosa (setting [3]); 53 mm in the experiment on Pseudomonas aeruginosa (setting [4]); 43 mm in the experiment with Staphylococcus aureus (setting [2]); 44 mm with Staphylococcus aureus (setting [3]); 53 mm with Staphylococcus aureus (setting [4]). Further, the inhibition zone with Aspergillus flavus (setting [2]) stood at 29 mm; with Aspergillus flavus (setting [3]), 30 mm; in the experiment on Aspergillus flavus (setting [4]), 42 mm; in experiment [1] (setting [2]), 29 mm; in experiment [1] (setting [3]) it was 30 mm; in experiment [1] (setting [4]), 53 mm.

For the compound `COc1ccc(/C(N)=N/OC(=O)CSc2nnc(-c3ccc(Cl)cc3)o2)cc1` [Compound 3, N′-(2-(5-(4-chlorophenyl)-1,3,4-oxadiazol-2-ylthio)acetoxy)-4-methoxybenzimidamide], the inhibition zone amounted to 28 mm with Bacillus cereus (setting [2]); 31 mm in the experiment on Bacillus cereus (setting [3]); 39 mm in the experiment on Bacillus cereus (setting [4]); 29 mm in the experiment on Escherichia coli (setting [2]); 38 mm in the experiment with Escherichia coli (setting [3]); 47 mm in the experiment on Escherichia coli (setting [4]). Also, the inhibition zone in the experiment with Pseudomonas aeruginosa (setting [2]) was 24 mm; in the experiment with Pseudomonas aeruginosa (setting [3]) it was 28 mm; in the experiment on Pseudomonas aeruginosa (setting [4]), 40 mm; in the experiment on Staphylococcus aureus (setting [2]), 20 mm; with Staphylococcus aureus (setting [3]), 24 mm; in the experiment with Staphylococcus aureus (setting [4]) it was 36 mm. Besides, the inhibition zone in the experiment with Aspergillus flavus (setting [2]) came out at 21 mm; with Aspergillus flavus (setting [3]) it was 22 mm; with Aspergillus flavus (setting [4]) it was 35 mm; in experiment [1] (setting [2]), 24 mm; in experiment [1] (setting [3]), 28 mm; in experiment [1] (setting [4]) it was 41 mm.
